According to patent publication US20180370912A1, “COMPOUNDS AND METHODS FOR TREATING DISEASES MEDIATED BY PROTEIN DISULFIDE ISOMERASE” (Beth Israel Deaconess Medical Center, Inc., priority 2017, published 2018):
Bridge positions count the residues as written; N and C are the ends. Square brackets hold non-standard residues; d marks the D form. Peptide text beside a SMILES is read from it. * marks the point of attachment. Ileψ(thiazoline)Cys = CC[C@H](C)[C@H](N)C1=N[C@H](C(=O)*)CS1; dOrn = NCCC[C@@H](N)C(=O)O

Assays:
[1] = molecular target: T1, PDI (Homo sapiens, UniProt P07237); test: Di-eosin-GSSG disulfide reductase assay; assay type: biochemical; settings: for change of apparent KM in the di-eosin-GSSG assay of PDI reductase activity / change of apparent kcat in the di-eosin-GSSG assay of PDI reductase activity: FIG. 6d
T1 construct: FLAG; made in house; host or cells: Escherichia coli Origami B (DE3), pET-15b
Protocol: (§1) The probe di-eosin glutathione disulfide, di-eosin-GSSG, was prepared as previously described in Raturi, A., Vacratsis, P. O., Seslija, D., Lee, L. & Mutus, B., Biochem J 391, 351-357 (2005). Reductase activity of purified thiol isomerases and PDI domains was monitored in a 96-well fluorescence plate format. PDI, AGHA-PDI, ERpS, ERp57, ERp72 and PDI domains were assayed at 50 nM in the presence or absence of the indicated small molecules, peptides or cathepsin G. The assay included 100 mM potassium phosphate (pH 7.4) containing 2 mM EDTA, 5 μM DTT and 150 nM of the di-eosin GSSG probe. The increase in fluorescence was determined for 20 minutes by excitation at 520 nm and emission at 550 nm in a Synergy Biotek 4. The reduction of 150 nM di-eosin-GSSG by 5 μM DTT in the presence or absence of mentioned small molecules, peptides or proteins served as a negative control.
Michaelis Menten analysis was assayed using PDI at 20 nM and small molecules, peptides or cathepsin G at concentrations causing maximal augmentation under similar buffer conditions as described above. 8-point response curves were generated using a range of different di-eosin-GSSG concentrations (50-5000 nM). Enzyme kinetics analysis was performed using Graphpad Prism 5.0.

[2] = tested on: thrombus formation; settings: literature; cited from earlier work
[3] = molecular target: T2, thioredoxin (Homo sapiens, UniProt P10599); test: Maleimide-polyethylene glycol-2-biotin (MPB) binding; settings: 150 μM inhibitor, FIG. 2c, FIG. 8
T2 sequence (P10599 1-105): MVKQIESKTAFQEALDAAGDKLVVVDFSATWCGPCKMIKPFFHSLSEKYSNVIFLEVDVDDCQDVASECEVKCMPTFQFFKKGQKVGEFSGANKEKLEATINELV
Protocol: (§2) Maleimide-Polyethanol glycol-2-Biotin (MPB) binding experiments were performed in a reaction volume of 37.5 μL with 5 μM of thiol isomerase or bovine serum albumin (BSA) in Tris-buffered saline (TBS), in the presence and absence of 1 mM of N-ethylmaleimide (NEM) or bacitracin, and 150 μM of the mentioned other inhibitors. The reaction mixture was incubated at 37° C. for 1 hour. Subsequently, the reaction mixtures were incubated with 25 μM of MPB. The labeling was performed for 20 minutes at 25° C. A total of 12.5 μL of 4× Laemmli Sample Buffer with 5% β-mercaptoethanol was added to each of the samples, followed by heating at 95° C. for 10 minutes. From each sample, 10 μL was loaded on a 12% SDS-PAGE gel, followed by transfer on a nitrocellulose membrane. After blocking the membrane with TBS-T containing 5% BSA for one hour, the membrane was incubated with a 1:2000 dilution of Cy5-tagged Streptavidin for an hour in the dark. Detection of the immunoblots was performed using ImageQuant LAS 4000 and analysis was performed using ImageQuant TL software.

[4] = molecular target: T3, ERp57 (Homo sapiens, UniProt P30101); test: as above; settings: 150 μM inhibitor, FIG. 2c, FIG. 8
T3 construct: FLAG; made in house; host or cells: Escherichia coli Origami B (DE3), pET-15b
T3 sequence (P30101 25-505): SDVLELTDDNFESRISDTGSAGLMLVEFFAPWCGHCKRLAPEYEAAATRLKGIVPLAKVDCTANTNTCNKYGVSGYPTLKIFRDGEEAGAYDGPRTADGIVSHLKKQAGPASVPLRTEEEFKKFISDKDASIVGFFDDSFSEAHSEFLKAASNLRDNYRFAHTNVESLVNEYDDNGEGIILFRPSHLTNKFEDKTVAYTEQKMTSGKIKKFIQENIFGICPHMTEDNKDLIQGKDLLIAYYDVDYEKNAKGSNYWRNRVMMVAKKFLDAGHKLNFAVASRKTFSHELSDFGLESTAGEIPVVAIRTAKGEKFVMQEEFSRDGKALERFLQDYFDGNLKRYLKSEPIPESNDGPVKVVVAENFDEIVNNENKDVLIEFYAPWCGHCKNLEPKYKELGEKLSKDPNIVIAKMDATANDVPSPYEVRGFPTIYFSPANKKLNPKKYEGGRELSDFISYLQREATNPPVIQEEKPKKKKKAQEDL
Protocol: as §2

[5] = molecular target: T4, ERp5 (Homo sapiens, UniProt Q15084); test: as above; settings: 150 μM inhibitor, FIG. 2c, FIG. 8
T4 construct: recombinant His-tagged full-length ERp5, ERp72 and PDI domain fragments; His; made in house; host or cells: Escherichia coli Origami B (DE3), pET-15b
T4 sequence (Q15084 20-440): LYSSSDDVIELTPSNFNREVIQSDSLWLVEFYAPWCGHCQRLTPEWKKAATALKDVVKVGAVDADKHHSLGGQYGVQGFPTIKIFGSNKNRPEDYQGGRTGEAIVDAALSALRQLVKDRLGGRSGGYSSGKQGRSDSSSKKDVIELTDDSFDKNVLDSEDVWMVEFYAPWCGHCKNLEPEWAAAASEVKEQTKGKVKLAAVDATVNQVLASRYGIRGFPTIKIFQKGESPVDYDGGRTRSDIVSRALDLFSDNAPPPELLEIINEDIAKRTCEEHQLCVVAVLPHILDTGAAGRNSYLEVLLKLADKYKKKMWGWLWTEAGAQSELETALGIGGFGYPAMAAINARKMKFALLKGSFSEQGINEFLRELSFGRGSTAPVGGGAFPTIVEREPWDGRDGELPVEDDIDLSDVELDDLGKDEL
Protocol: as §2

[6] = molecular target: T2, thioredoxin; test: Insulin reductase assay, thiol isomerase selectivity; assay type: biochemical; settings: 10-fold IC50, FIG. 2
Protocol: (§3) The thiol isomerase-catalyzed reduction of insulin was assayed by measuring the increase in turbidity as detected at an optical density (OD) of 650 nm using a Spectramax M3 (Molecular Devices, Sunnyvale, Calif.). The validation assay consisted of 175 nM of PDI in a solution containing 100 mM potassium phosphate (pH 7.4) containing 0.2 mM bovine insulin, 2 mM EDTA, and 0.3 mM DTT (all purchased from Sigma Aldrich, St. Louis, Mo.), inhibitors were used at the concentrations indicated. The reaction was performed at 25° C. for one hour and thirty minutes. For assays of thiol isomerase selectivity, 11 nM PDI, ERp57 or Thioredoxin, or 33 nM ERpS were assayed in similar buffer conditions as described above and inhibitors were used at the indicated concentration. The reaction was performed at 37° C. for forty-five minutes. For assays of isolated domains studies, 400 nM protein was used, except for a, a′ and ab, in which 800 nM protein was used. The assay was performed in similar buffer conditions as described above. Bepristat 2a and N-(2,4-Dimethoxyphenyl)-N-(1-oxo-2-propyn-1-yl)-2-(2-thienyl)glycyl-glycine ethyl ester (PACMA-31) were used at a final concentration of 15 μM in these studies.

[7] = molecular target: T3, ERp57; test: as above; assay type: biochemical; settings: FIG. 2
Protocol: as §3

[8] = molecular target: T4, ERp5; test: as above; assay type: biochemical; settings: 10-fold IC50, FIG. 2
Protocol: as §3

[9] = molecular target: T5, full-length PDI (Homo sapiens, UniProt P07237); test: Small-angle X-ray scattering (SAXS); settings: PDI complexed with compound; full-length oxidized PDI 40.0 Å, FIG. 5d
T5 construct: FLAG; made in house; host or cells: Escherichia coli Origami B (DE3), pET-15b
Protocol: Further purification of full-length PDI was achieved by gel filtration. PDI (1.5, 3.0 and 4.5 mg/mL) was dialyzed against 20 mM Tris, 150 mM NaCl, 5% glycerol (pH: 8.0) containing 0.5 mM bepristat 1b or 2b or DMSO control at 4° C. overnight. Evaluation by SAXS was performed on the SIBYLS beamline in the Advanced Light Source using a high throughput data collection method.

[10] = molecular target: T3, ERp57; test: Di-eosin-GSSG disulfide reductase assay; assay type: biochemical
Protocol: as §1

[11] = molecular target: T4, ERp5; test: Di-eosin-GSSG disulfide reductase assay; assay type: biochemical
Protocol: as §1

[12] = molecular target: T6, ERp72 (Homo sapiens, UniProt P13667); test: Di-eosin-GSSG disulfide reductase assay; assay type: biochemical
T6 construct: recombinant His-tagged full-length ERp5, ERp72 and PDI domain fragments; His; made in house; host or cells: Escherichia coli Origami B (DE3), pET-15b
T6 sequence (P13667 21-645): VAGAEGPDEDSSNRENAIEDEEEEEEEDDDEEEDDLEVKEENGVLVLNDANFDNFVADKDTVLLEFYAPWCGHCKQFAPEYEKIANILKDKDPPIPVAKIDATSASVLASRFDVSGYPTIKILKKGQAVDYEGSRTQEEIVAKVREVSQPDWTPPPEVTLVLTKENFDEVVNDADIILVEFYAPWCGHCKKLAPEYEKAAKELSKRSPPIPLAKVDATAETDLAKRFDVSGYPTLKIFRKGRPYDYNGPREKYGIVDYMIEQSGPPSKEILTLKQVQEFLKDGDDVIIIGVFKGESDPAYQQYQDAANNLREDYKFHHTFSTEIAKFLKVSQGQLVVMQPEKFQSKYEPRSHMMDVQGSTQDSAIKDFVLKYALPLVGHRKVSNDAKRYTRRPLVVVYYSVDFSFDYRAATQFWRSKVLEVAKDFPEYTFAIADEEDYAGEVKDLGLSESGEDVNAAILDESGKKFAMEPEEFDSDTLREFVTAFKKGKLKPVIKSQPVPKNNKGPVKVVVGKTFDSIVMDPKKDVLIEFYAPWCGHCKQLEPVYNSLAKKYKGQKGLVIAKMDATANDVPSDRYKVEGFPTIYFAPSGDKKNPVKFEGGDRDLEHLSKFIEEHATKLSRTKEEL
Protocol: as §1

[13] = molecular target: T1, PDI; settings: cited from earlier work

T1 sequence (P07237 18-508): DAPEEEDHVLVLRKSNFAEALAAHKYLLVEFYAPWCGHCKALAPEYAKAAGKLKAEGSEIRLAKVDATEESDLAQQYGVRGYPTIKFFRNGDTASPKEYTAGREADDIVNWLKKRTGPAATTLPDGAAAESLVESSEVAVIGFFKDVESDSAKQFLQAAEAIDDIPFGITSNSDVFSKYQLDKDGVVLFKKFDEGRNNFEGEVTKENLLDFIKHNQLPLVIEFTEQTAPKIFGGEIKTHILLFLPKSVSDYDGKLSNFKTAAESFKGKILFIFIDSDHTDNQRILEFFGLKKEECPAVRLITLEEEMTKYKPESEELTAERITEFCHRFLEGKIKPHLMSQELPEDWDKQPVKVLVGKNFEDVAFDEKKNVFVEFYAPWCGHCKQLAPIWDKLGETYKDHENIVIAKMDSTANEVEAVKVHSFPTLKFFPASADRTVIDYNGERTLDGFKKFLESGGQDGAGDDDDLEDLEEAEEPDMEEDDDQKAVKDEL
T5 sequence (P07237 18-508): as above

Compound	cleavage of di-eosin-GSSG probe by PDI (reductase activity at catalytic cysteines) [1]	change of apparent KM in the di-eosin-GSSG assay of PDI reductase activity [1]	change of apparent kcat in the di-eosin-GSSG assay of PDI reductase activity [1]	cleavage of di-eosin-GSSG by ERp57 (catalytic activity) [10]	cleavage of di-eosin-GSSG by ERp5 (catalytic activity) [11]	cleavage of di-eosin-GSSG by ERp72 (catalytic activity) [12]	other results
CC[C@H](C)[C@H](N)C1=N[C@H](C(=O)N[C@@H](CC(C)C)C(=O)N[C@H](CCC(=O)O)C(=O)N[C@H](C(=O)N[C@H]2CCCCNC(=O)[C@H](CC(N)=O)NC(=O)[C@@H](CC(=O)O)NC(=O)[C@H](Cc3cnc[nH]3)NC(=O)[C@@H](Cc3ccccc3)NC(=O)[C@H]([C@@H](C)CC)NC(=O)[C@@H](CCCN)NC2=O)[C@@H](C)CC)CS1 [bacitracin] ({Ileψ(thiazoline)Cys}-L[dE]IK[dOrn]I[dF]H[dD]N; lactam 4-C)	blocked PDI-mediated cleavage of di-eosin-GSSG	–	–	–	–	–	thrombus formation in vivo [2]: inhibits thrombus formation in vivo; reaction of MPB with the catalytic cysteines of thioredoxin [3]: interfered with the reaction of maleimide-polyethylene glycol-2-biotin (MPB); reaction of MPB with the catalytic cysteines of ERp57 [4]: interfered with the reaction of maleimide-polyethylene glycol-2-biotin (MPB); reaction of MPB with the catalytic cysteines of ERp5 [5]: interfered with the reaction of maleimide-polyethylene glycol-2-biotin (MPB); inhibition of reductase activity of thioredoxin [6]: showed activity against all thiol isomerases tested; inhibition of reductase activity of ERp57 [7]: showed activity against all thiol isomerases tested; inhibition of reductase activity of ERp5 [8]: showed activity against all thiol isomerases tested
CCOC(=O)c1c(CNCCN(CC)CC)n(-c2ccccc2)c2cc(Br)c(O)cc12 [bepristat 2b]	–	–	–	–	–	–	gyration radius (Rg) of PDI [9]: 35.9 Å
C[C@H](N)C(=O)NCC(=O)N[C@H]1CSSC[C@@H](C(=O)O)NC(=O)[C@H](CO)NC(=O)[C@H]([C@@H](C)O)NC(=O)[C@H](Cc2ccccc2)NC(=O)[C@H]([C@@H](C)O)NC(=O)[C@H](CCCCN)NC(=O)[C@H](Cc2c[nH]c3ccccc23)NC(=O)[C@H](Cc2ccccc2)NC(=O)[C@H](Cc2ccccc2)NC(=O)[C@H](CC(N)=O)NC(=O)[C@H](CCCCN)NC1=O [somatostatin, reference compound]	–	decreased the apparent KM	–	–	–	–	–
cathepsin G: a protein substrate of PDI	elicits enhanced reductase activity	decreased the apparent KM	None of them altered the apparent kcat	inhibited the catalytic activity of ERp5 and ERp57 to varying degrees	inhibited the catalytic activity of ERp5 and ERp57 to varying degrees	augmented the catalytic activity of ERp72	–
mastoparan [reference compound]	enhanced the ability of PDI to cleave di-eosin-GSSG in a dose-dependent manner	decreased the apparent KM	None of them altered the apparent kcat	inhibited the catalytic activity of ERp5 and ERp57 to varying degrees	inhibited the catalytic activity of ERp5 and ERp57 to varying degrees	augmented the catalytic activity of ERp72	PDI activity in RNase refolding assay [13]: inhibits PDI activity in an RNase refolding assay
